Where a name gives a salt, the structure may show the parent alone.
Molecular target: T1, human TRPM8 (Homo sapiens, UniProt Q7Z2W7)
T1 construct: expressed in transfected cells; host or cells: Chinese hamster ovary (CHO) cells, T-REx tetracycline-inducible expression system (Invitrogen); co-transfected with pcDNA3.1 aequorin
Experiment: Luminescence readout assay for measuring intracellular calcium (aequorin, CHO cells expressing human TRPM8; icilin, L-menthol or cold activation)
Format: cell-based
Conditions: not given
Outline: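 Activation was by 1 μM icilin, 100 μM L-menthol (test compound 2.5 min ahead) or cold buffer below 10° C (compound 1 min ahead). Calcium rise measured as aequorin luminescence in CHO cells with tetracycline-inducible human TRPM8.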

T1 sequence (Q7Z2W7 whole entry): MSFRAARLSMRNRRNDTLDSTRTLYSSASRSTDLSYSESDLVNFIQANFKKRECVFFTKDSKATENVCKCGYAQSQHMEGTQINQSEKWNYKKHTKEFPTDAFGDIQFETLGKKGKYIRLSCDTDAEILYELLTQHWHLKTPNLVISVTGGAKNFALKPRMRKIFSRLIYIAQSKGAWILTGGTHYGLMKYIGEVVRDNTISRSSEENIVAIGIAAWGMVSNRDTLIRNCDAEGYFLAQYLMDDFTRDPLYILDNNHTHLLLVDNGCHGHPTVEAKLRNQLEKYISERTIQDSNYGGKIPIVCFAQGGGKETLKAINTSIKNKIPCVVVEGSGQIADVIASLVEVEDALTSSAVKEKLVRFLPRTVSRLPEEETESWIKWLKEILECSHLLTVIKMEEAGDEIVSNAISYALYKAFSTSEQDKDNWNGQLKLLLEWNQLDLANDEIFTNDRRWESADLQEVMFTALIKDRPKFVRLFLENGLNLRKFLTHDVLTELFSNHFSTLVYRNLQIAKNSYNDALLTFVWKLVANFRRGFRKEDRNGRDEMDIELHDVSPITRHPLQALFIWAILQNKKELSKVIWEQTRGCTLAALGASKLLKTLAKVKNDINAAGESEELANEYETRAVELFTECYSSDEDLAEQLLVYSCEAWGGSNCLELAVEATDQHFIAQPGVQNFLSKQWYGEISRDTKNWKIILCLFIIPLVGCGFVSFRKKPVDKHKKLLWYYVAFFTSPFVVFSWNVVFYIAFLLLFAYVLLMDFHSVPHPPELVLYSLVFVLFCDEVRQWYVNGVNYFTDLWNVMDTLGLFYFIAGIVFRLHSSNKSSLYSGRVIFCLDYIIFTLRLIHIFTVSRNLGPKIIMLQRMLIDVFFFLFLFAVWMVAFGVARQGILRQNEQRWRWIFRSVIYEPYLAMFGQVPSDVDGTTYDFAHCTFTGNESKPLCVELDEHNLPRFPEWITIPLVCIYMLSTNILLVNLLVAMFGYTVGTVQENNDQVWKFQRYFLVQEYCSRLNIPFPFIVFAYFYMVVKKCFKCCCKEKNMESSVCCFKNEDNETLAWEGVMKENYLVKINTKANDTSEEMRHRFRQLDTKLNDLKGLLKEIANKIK

| IC50 | SMILES |
| --- | --- |
| 4.07 nM | O=C(N[C@]1(c2ccc(OC(F)(F)F)cc2)CCOc2cccnc21)c1ccc2[nH]cnc2c1 [Example 237, (S)-N-(4-(4-(trifluoromethoxy)phenyl)-3,4-dihydro-2H-pyrano[3,2-b]pyridin-4-yl)1lH-benzo[d]imidazole-5-carboxamide formate] |

Same assay, conditions: CHO cells expressing human TRPM8, icilin activation (1 μM), aequorin luminescence; read-out: hTRPM8 IC50

| SMILES | IC50 |
| --- | --- |
| O=C(N[C@]1(c2ccc(OC(F)(F)F)cc2)CCOc2cccnc21)c1cccc2cccnc12 [Example 221, (S)-N-(4-(4-(trifluoromethoxy)phenyl)-3,4-dihydro-2H-pyrano[3,2-b]pyridin-4-yl)quinoline-8-carboxamide formate] | 31 nM |
| Cc1ccc2[nH]c(C(=O)N[C@]3(c4ccc(OC(F)(F)F)cc4)CCOc4cccnc43)cc2c1 [Example 222, (S)-5-methyl-N-(4-(4-(trifluoromethoxy)phenyl)-3,4-dihydro-2H-pyrano[3,2-b]pyridin-4-yl)-1H-indole-2-carboxamide formate] | 2000 nM |
| O=C(N[C@]1(c2ccc(OC(F)(F)F)cc2)CCOc2cccnc21)c1cc2nccc(C3CC3)n2n1 [Example 224, (S)-7-cyclopropyl-N-(4-(4-(trifluoromethoxy)phenyl)-3,4-dihydro-2H-pyrano[3,2-b]pyridin-4-yl) pyrazolo[1,5-a] pyrimidine-2-carboxamide formate] | 116 nM |
| O=C(N[C@]1(c2ccc(OC(F)(F)F)cc2)CCOc2cccnc21)c1cocn1 [Example 226, (S)-N-(4-(4-(trifluoromethoxy)phenyl)-3,4-dihydro-2H-pyrano[3,2-b]pyridin-4-yl)oxazole-4-carboxamide formate] | 150 nM |
| Cn1ccc(C(=O)N[C@]2(c3ccc(OC(F)(F)F)cc3)CCOc3cccnc32)n1 [Example 227, (S)-1-methyl-N-(4-(4-(trifluoromethoxy)phenyl)-3,4-dihydro-2H-pyrano[3,2-b]pyridin-4-yl)-1H-pyrazole-3-carboxamide formate] | 58.7 nM |
| Cn1nccc1C(=O)N[C@]1(c2ccc(OC(F)(F)F)cc2)CCOc2cccnc21 [Example 228, (S)-1-methyl-N-(4-(4-(trifluoromethoxy)phenyl)-3,4-dihydro-2H-pyrano[3,2-b]pyridin-4-yl)-lH-pyrazole-5-carboxamide formate_] | 105 nM |
| O=C(N[C@]1(c2ccc(OC(F)(F)F)cc2)CCOc2cccnc21)c1cccs1 [Example 229, (S)-N-(4-(4-(trifluoromethoxy)phenyl)-3,4-dihydro-2H-pyrano[3,2-b]pyridin-4-yl)thiophene-2-carboxamide fomiate] | 145 nM |
| O=C(N[C@]1(c2ccc(OC(F)(F)F)cc2)CCOc2cccnc21)c1cscn1 [Example 231, (S)-N-(4-(4-(trifluoromethoxy)phenyl)-3,4-dihydro-2H-pyrano[3,2-b]pyridin-4-yl)thiazole-4-carboxamide formate] | 45.2 nM |
| O=C(N[C@]1(c2ccc(OC(F)(F)F)cc2)CCOc2cccnc21)c1cncs1 [Example 233, (S)-N-(4-(4-(trifluoromethoxy)phenyl)-3,4-dihydro-2H-pyrano[3,2-b]pyridin-4-yl)thiazole-5-carboxamide formate] | 222 nM |
| O=C(N[C@]1(c2ccc(OC(F)(F)F)cc2)CCOc2cccnc21)c1c[nH]c2ccccc12 [Example 234, (S)-N-(4-(4-(trifluoromethoxy)phenyl)-3,4-dihydro-2H-pyrano[3,2-b]pyridin-4-yl)-1H-indole-3-carboxamide foraiate] | 56.8 nM |
| O=C(N[C@]1(c2ccc(OC(F)(F)F)cc2)CCOc2cccnc21)c1ccc2cc[nH]c2c1 [Example 235, (S)-N-(4-(4-(trifluoromethoxy)phenyl)-3,4-dihydro-2H-pyrano[3,2-b]pyridin-4-yl)-1H-indole-6-carboxamide formate] | 35.7 nM |
| O=C(N[C@]1(c2ccc(OC(F)(F)F)cc2)CCOc2cccnc21)c1cc2ccccc2o1 [Example 236, (S)-N-(4-(4-(trifluoromethoxy)phenyl)-3,4-dihydro-2H-pyrano[3,2-b]pyridin-4-yl)benzofuran-2-carboxamide formate] | 66.5 nM |
| O=C(N[C@]1(c2ccc(OC(F)(F)F)cc2)CCOc2cccnc21)c1cccc2[nH]cnc12 [Example 238, (S)-N-(4-(4-(trifluoromethoxy)phenyl)-3,4-dihydro-2H-pyrano[3,2-b]pyridin-4-yl)-1H-benzo[d]imidazole-4-carboxamide formate] | 41.4 nM |
| O=C(N[C@]1(c2ccc(OC(F)(F)F)cc2)CCOc2cccnc21)c1cn2ccccc2n1 [Example 239, (S)-N-(4-(4-(trifluoromethoxy)phenyl)-3,4-dihydro-2H-pyrano[3,2-b]pyridin-4-yl)imidazo[1,2-a] pyridine-2-carboxamide formate] | 34.6 nM |
| O=C(N[C@]1(c2ccc(OC(F)(F)F)cc2)CCOc2cccnc21)c1ccc2nccn2c1 [Example 240, (S)-N-(4-(4-(trifluoromethoxy)phenyl)-3,4-dihydro-2H-pyrano[3,2-b]pyridin-4-yl)imidazo[1,2-a] pyridine-6-carboxamide formate] | 40.6 nM |
| O=C(N[C@]1(c2ccc(OC(F)(F)F)cc2)CCOc2cccnc21)c1nc2ccccc2[nH]1 [Example 241, (S)-N-(4-(4-(trifluoromethoxy)phenyl)-3,4-dihydro-2H-pyrano[3,2-b]pyridin-4-yl)-1H-benzo[d]imidazole-2-carboxamide formate] | 769 nM |
| O=C(N[C@]1(c2ccc(OC(F)(F)F)cc2)CCOc2cccnc21)c1cnn2cccnc12 [Example 244, (S)-N-(4-(4-(trifluoromethoxy)phenyl)-3,4-dihydro-2H-pyrano[3,2-b]pyridin-4-yl)pyrazolo[1,5-a] pyrimidine-3-carboxamide formate] | 52.1 nM |
| O=C(N[C@]1(c2ccc(OC(F)(F)F)cc2)CCOc2cccnc21)C1Cc2ccccc2N1 (stereo partly drawn) [Example 245, N-((S)-4-(4-(trifluoromethoxy)phenyl)-3,4-dihydro-2H-pyrano[3,2-b]pyridin-4-yl)indoline-2-carboxamide formate] | 254 nM |
| O=C(N[C@]1(c2ccc(OC(F)(F)F)cc2)CCOc2cccnc21)C1Cc2ccccc2O1 (stereo partly drawn) [Example 246, N-((S)-4-(4-(trifluoromethoxy)phenyl)-3,4-dihydro-2H-pyrano[3,2-b]pyridin-4-yl)-2,3-dihydrobenzo furan-2-carboxamide formate] | 94.4 nM |
| O=C(N[C@]1(c2ccc(OC(F)(F)F)cc2)CCOc2cccnc21)c1cccc2cnccc12 [Example 249, (S)-N-(4-(4-(trifluoromethoxy)phenyl)-3,4-dihydro-2H-pyrano[3,2-b]pyridin-4-yl)isoquinoline-5-carboxamide formate] | 99 nM |
| O=C(N[C@]1(c2ccc(OC(F)(F)F)cc2)CCOc2cccnc21)c1ccc2ccccc2n1 [Example 251, (S)-N-(4-(4-(trifluoromethoxy)phenyl)-3,4-dihydro-2H-pyrano[3,2-b]pyridin-4-yl)quinoline-2-carboxamide formate] | 56 nM |

The next lines start with the values.

| IC50 | SMILES |
| --- | --- |
| 10 nM | O=C(N[C@]1(c2ccc(OC(F)(F)F)cc2)CCOc2cccnc21)c1ccc2c(=O)[nH]ccc2c1 [Example 223, (S)-1-oxo-N-(4-(4-(trifluoromethoxy)phenyl)-3,4-dihydro-2H-pyrano[3,2-b]pyridin-4-yl)-1,2-dihydroisoquinoline-6-carboxamide formate] |
| 12 nM | COc1ccc2cc(C(=O)N[C@]3(c4ccc(OC(F)(F)F)cc4)CCOc4cccnc43)cnc2c1 [Example 225, (S)-7-methoxy-N-(4-(4-(trifluoromethoxy)phenyl)-3,4-dihydro-2H-pyrano[3,2-b]pyridin-4-yl)quinoline-3-carboxamide formate] |
| 20.1 nM | O=C(N[C@]1(c2ccc(OC(F)(F)F)cc2)CCOc2cccnc21)c1ccsc1 [Example 230, (S)-N-(4-(4-(trifluoromethoxy)phenyl)-3,4-dihydro-2H-pyrano[3,2-b]pyridin-4-yl)thiophene-3-carboxamide formate] |
| 25.8 nM | O=C(N[C@]1(c2ccc(OC(F)(F)F)cc2)CCOc2cccnc21)c1ccsn1 [Example 232, (S)-N-(4-(4-(trifluoromethoxy)phenyl)-3,4-dihydro-2H-pyrano[3,2-b]pyridin-4-yl)isothiazole-3-carboxamide formate] |
| 5.55 nM | O=C(N[C@]1(c2ccc(OC(F)(F)F)cc2)CCOc2cccnc21)c1n[nH]c2ncccc12 [Example 242, (S)-N-(4-(4-(trifluoromethoxy)phenyl)-3,4-dihydro-2H-pyrano[3,2-b]pyridin-4-yl)-1H-pyrazolo[3,4-b] pyridine-3-carboxamide formate] |
| 16.6 nM | O=C(N[C@]1(c2ccc(OC(F)(F)F)cc2)CCOc2cccnc21)c1cn2ncccc2n1 [Example 243, (S)-N-(4-(4-(trifluoromethoxy)phenyl)-3,4-dihydro-2H-pyrano[3,2-b]pyridin-4-yl)imidazo[1,2-b] pyridazine-2-carboxamide formate] |
| 30 nM | O=C(N[C@]1(c2ccc(OC(F)(F)F)cc2)CCOc2cccnc21)c1nccc2ccccc12 [Example 247, (S)-N-(4-(4-(trifluoromethoxy)phenyl)-3,4-dihydro-2H-pyrano[3,2-b]pyridin-4-yl)isoquinoline-1-carboxamide formate] |
| 24 nM | O=C(N[C@]1(c2ccc(OC(F)(F)F)cc2)CCOc2cccnc21)c1cc2ccccc2cn1 [Example 248, (S)-N-(4-(4-(trifluoromethoxy)phenyl)-3,4-dihydro-2H-pyrano[3,2-b]pyridin-4-yl)isoquinoline-3-carboxamide formate] |
| 15 nM | O=C(N[C@]1(c2ccc(OC(F)(F)F)cc2)CCOc2cccnc21)c1ccc2cnccc2c1 [Example 250, (S)-N-(4-(4-(trifluoromethoxy)phenyl)-3,4-dihydro-2H-pyrano[3,2-b]pyridin-4-yl)isoquinoline-6-carboxamide formate] |
| 24 nM | O=C(N[C@]1(c2ccc(OC(F)(F)F)cc2)CCOc2cccnc21)c1cnc2ccccc2c1 [Example 252, (S)-N-(4-(4-(trifluoromethoxy)phenyl)-3,4-dihydro-2H-pyrano[3,2-b]pyridin-4-yl)quinoline-3-carboxamide formate] |

Source: US20150031668A1, “CHROMAN DERIVATIVES AS TRPM8 INHIBITORS” (AMGEN INC., priority 2013, published 2015)
